# Reference: US4088757A, “4'Alpha- and 4'beta-amino-4'-desoxyoleandrins, and pharmaceutical composition containing same” (Beiersdorf Aktiengesellschaft, priority 1976, dated 1978)
# Legend:
# [1] = assay type: in vivo; settings: cat, intravenous; for preferential route of elimination (in words): tritium-marked drug; for Biliary Elimination: tritium-marked drug in feces; for Biliary Elimination / Renal Elimination: % of activity originally injected; for Renal Elimination: tritium-marked drug in urine
# Procedure: 1. The elimination rate of both drugs in the cat was tested by intravenously injecting a fixed amount of the drugs into the cat and recording the amount of tritium-marked drug appearing in the urine and feces. The results are stated as a percentage of the activity of the tritium-marked glycoside originally injected.
# [2] = test system: papillary muscle of the guinea pig; assay: inotropic effect on the papillary muscle of the guinea pig in vitro; settings: Cavia porcellus, 40% ethanol and 60% water mixture, read-out: ED50 (amount of drug necessary to increase the contractile force of the muscle by 50%)
# Procedure: 2. The inotropic effect of both drugs was tested on the papillary muscle of the guinea pig in vitro. The muscle was connected to a recording device and then placed in a bath of 0.1% solution of the drug to be tested in a mixture of 40% ethanol and 60% water. This solution was gradually diluted with water and a dosage versus contraction graph plotted. The amount of drug necessary to increase the contractile force of the muscle by 50% (ED50) was then calculated.
Structure (SMILES),preferential route of elimination (in words) [1],Biliary Elimination [1] [%],Renal Elimination [1] [%],EC50 [2] [µg/mL]
COC1CC(OC2CCC3(C)C(CCC4C3CCC3(C)C(C5=CC(=O)OC5)C(OC(C)=O)CC43O)C2)OC(C)C1N (centres unmarked) [4'-amino-4'-desoxy-oleandrin],preferentially eliminated by the biliary system,11.1,2.5,0.13
C[C@H]1O[C@@H](O[C@H]2[C@@H](O)C[C@H](O[C@H]3[C@@H](O)C[C@H](O[C@H]4CC[C@@]5(C)[C@H](CC[C@@H]6[C@@H]5C[C@@H](O)[C@]5(C)[C@@H](C7=CC(=O)OC7)CC[C@]65O)C4)O[C@@H]3C)O[C@@H]2C)C[C@H](O)[C@@H]1O [digoxin],preferentially eliminated by the renal system,4.7,6.3,1.1
